{"source": "PubChem BioAssay AID179", "about": "(DTP/NCI, 2004)", "test_system": "CEM cells HIV-1 protection, formazan growth assay", "test": "NCI AIDS Antiviral Assay", "settings": "for IC50: measured here: growth of uninfected CEM cells", "in_short": "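Protection of CEM cells against HIV-1 measured as cell growth via soluble formazan read-out, with five concentrations tested on both infected and uninfected cells; failure to protect may reflect toxicity.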", "note": "Activity calls are given as the source filed them.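 How the source made its calls: active means compounds giving half or more protection of infected cells from virus-caused growth loss, again on retest; inactive means the rest.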 *1 amine or outer side, *2 acyl side, *3 side chain or, on linkers, in order; H or OH if unused. Where a SMILES comes first, the peptide text is derived from it. Bridges are numbered along the chain shown (N, C = ends). [ ]: non-standard residue; d: D form. The star is where a group is joined. ξ: configuration not given here. γ4hArg(2R,3R-(OH)2) = N=C(N)NCCC[C@H](N[*:1])[C@@H](O)[C@@H](O)C(=O)[*:2]; Gln(3S,4R-Me2) = C[C@H]([C@H](N)C(=O)O)[C@@H](C)C(N)=O; X5 = CC(C)C[C@H](C)[C@@H](O)[C@@H](C)C(=O)*; X6 = COC(c1ccc(O)cc1)C(N[*:1])C(=O)[*:2]; NMeQ = CN[C@@H](CCC(N)=O)C(=O)O; Thr(3ξ) = CC(O)[C@H](N)C(=O)O; NMeA = CN[C@@H](C)C(=O)O", "data": [{"compound": "O=[N+]([O-])c1ccc(CSSCc2ccc([N+](=O)[O-])cc2)cc1", "values": [{"measurement": "EC50", "result": "> 200", "unit": "µM"}, {"measurement": "IC50", "result": 17.8, "unit": "µM"}]}, {"compound": "N#Cc1c(N2CCCC2)ncn(-c2ccccc2)c1=S", "values": [{"measurement": "EC50", "result": "> 200", "unit": "µM"}, {"measurement": "IC50", "result": "> 200", "unit": "µM"}]}, {"compound": "CC(=O)Nc1ccc(OCC(O)CO)cc1", "note": "(configuration not stated)", "values": [{"measurement": "EC50", "result": "> 1120", "unit": "µM"}, {"measurement": "IC50", "result": 832, "unit": "µM"}]}, {"compound": "O=C1C=CC(=Nc2ccc3c(c2)Cc2ccccc2-3)O1", "values": [{"measurement": "EC50", "result": "> 200", "unit": "µM"}, {"measurement": "IC50", "result": 32.4, "unit": "µM"}]}, {"compound": "CC(SSc1ccc(C(C)(C)C)cc1)c1ccccc1", "note": "(configuration not stated)", "values": [{"measurement": "EC50", "result": "> 200", "unit": "µM"}, {"measurement": "IC50", "result": 8.51, "unit": "µM"}]}, {"compound": "O=C(OCCc1ccccc1)c1ccc2cc(O)c(O)cc2c1", "values": [{"measurement": "EC50", "result": "> 31.6", "unit": "µM"}, {"measurement": "IC50", "result": 12.9, "unit": "µM"}]}, {"compound": "O=C1OC[C@@H]2[C@@H](O)CCCCCN12", "values": [{"measurement": "EC50", "result": "> 200", "unit": "µM"}, {"measurement": "IC50", "result": "> 200", "unit": "µM"}]}, {"compound": "CN1C/C(=C\\c2ccc(N(C)C)cc2)C(=O)/C(=C/c2ccc(N(C)C)cc2)C1", "values": [{"measurement": "EC50", "result": "> 100", "unit": "µM"}, {"measurement": "IC50", "result": "> 100", "unit": "µM"}]}, {"compound": "C/C=C/C(=O)C(C)C1=CC(=O)C2=C(OC34CC[C@H](O)C(C)(C)[C@@H]3CC[C@H](C)C4(C)C2)C1=O", "note": "(some centres not stated)", "values": [{"measurement": "outcome", "result": "inactive"}]}, {"compound": "C/C(CN1C(=O)c2ccccc2C1=O)=N\\NS(=O)(=O)c1cccc([N+](=O)[O-])c1", "values": [{"measurement": "EC50", "result": "> 617", "unit": "µM"}, {"measurement": "IC50", "result": "> 617", "unit": "µM"}]}, {"compound": "COc1ccc(CN2CCCN(Cc3ccc(OC)cc3)C2c2ccccc2O)cc1", "values": [{"measurement": "EC50", "result": "> 200", "unit": "µM"}, {"measurement": "IC50", "result": 50.1, "unit": "µM"}]}, {"compound": "COc1cccc(N(CN2C(=O)CCC2C(=O)O)C(C)=O)c1", "note": "(configuration not stated)", "values": [{"measurement": "outcome", "result": "inactive"}]}, {"compound": "CNC(=O)N(CCC#N)CCN(CCN(C(=O)NC)c1ccccc1)C(=O)NC", "values": [{"measurement": "EC50", "result": "> 200", "unit": "µM"}, {"measurement": "IC50", "result": "> 200", "unit": "µM"}]}, {"compound": "COc1cc(C2C(C(=O)Nc3ccc(Cl)c(Cl)c3)=C(C)NC(C)=C2C(=O)Nc2ccc(Cl)c(Cl)c2)ccc1O", "values": [{"measurement": "EC50", "result": "> 22.4", "unit": "µM"}, {"measurement": "IC50", "result": 12.6, "unit": "µM"}]}, {"compound": "CCOC(=O)C(Cl)(NC(=O)c1c(F)c(F)c(F)c(F)c1F)C(F)(F)F", "note": "(configuration not stated)", "values": [{"measurement": "outcome", "result": "inactive"}]}, {"compound": "C=C(C)CC1(O[Si](C)(C)C)C(=O)C(OCC)=C1OCC", "note": "(configuration not stated)", "values": [{"measurement": "EC50", "result": "> 200", "unit": "µM"}, {"measurement": "IC50", "result": "> 200", "unit": "µM"}]}, {"compound": "COc1cccc(/C=C/c2cnc3ccccc3n2)c1OC", "values": [{"measurement": "EC50", "result": "> 200", "unit": "µM"}, {"measurement": "IC50", "result": 151, "unit": "µM"}]}, {"compound": "C=C(C)C12CC(C)C34OC(CCCCCCCCCCC)(OC1C3C1OC1(CO)C(O)C1(O)C(=O)C(C)=CC14C)O2", "note": "(configuration not stated)", "values": [{"measurement": "outcome", "result": "active"}]}, {"compound": "O=C1C2=C(SCCS2)C(=O)c2ccccc21", "values": [{"measurement": "EC50", "result": "> 42.7", "unit": "µM"}, {"measurement": "IC50", "result": 0.676, "unit": "µM"}]}, {"compound": "CN(C)CCNC(=O)c1cc([N+](=O)[O-])cc2c1Oc1ccccc1O2", "values": [{"measurement": "EC50", "result": "> 200", "unit": "µM"}, {"measurement": "IC50", "result": 10.5, "unit": "µM"}]}, {"compound": "C=C(C)[C@@]1(OC(=O)c2cc([N+](=O)[O-])cc([N+](=O)[O-])c2)C[C@@H]2CCCC[C@@H]21", "values": [{"measurement": "outcome", "result": "inactive"}]}, {"compound": "CCc1nc2ccc(N=Nc3c(O)ccc4ccccc34)cc2[nH]1", "values": [{"measurement": "EC50", "result": "> 58.9", "unit": "µM"}, {"measurement": "IC50", "result": 24.5, "unit": "µM"}]}, {"compound": "O=C1CSc2ccccc2-n2cccc21", "values": [{"measurement": "EC50", "result": "> 209", "unit": "µM"}, {"measurement": "IC50", "result": 105, "unit": "µM"}]}, {"compound": "CC(=O)O[C@H]1C#C/C=C\\C#CC[C@@H]2C(=O)N(C(=O)OC(C)(C)C)[C@@H]12", "values": [{"measurement": "EC50", "result": "> 20", "unit": "µM"}, {"measurement": "IC50", "result": 1.12, "unit": "µM"}]}, {"compound": "O=C(CCCn1cnc([N+](=O)[O-])n1)NCCCn1ccnc1[N+](=O)[O-]", "values": [{"measurement": "EC50", "result": "> 200", "unit": "µM"}, {"measurement": "IC50", "result": "> 200", "unit": "µM"}]}, {"compound": "C[C@@H]1CN2SN1C[C@@H]2C", "values": [{"measurement": "EC50", "result": "> 1740", "unit": "µM"}, {"measurement": "IC50", "result": "> 1740", "unit": "µM"}]}, {"compound": "O=C1OC2c3ccccc3C(=O)C2(c2ccccc2)N1c1ccccc1", "note": "(configuration not stated)", "values": [{"measurement": "EC50", "result": "> 200", "unit": "µM"}, {"measurement": "IC50", "result": 126, "unit": "µM"}]}, {"compound": "COC(c1ccc(O)cc1)C1NC(=O)[C@H](CCC(N)=O)N(C)C(=O)[C@H](CC(C)C)NC(=O)[C@@H](CCCN=C(N)N)NC(=O)[C@H](C(C)O)NC(=O)[C@@H](NC(=O)[C@@H](NC(=O)[C@H](O)[C@H](O)[C@H](CCCN=C(N)N)NC(=O)[C@H](C)NC(=O)[C@H](C)[C@H](O)[C@@H](C)CC(C)C)[C@@H](C)[C@@H](C)C(N)=O)[C@@H](C)OC(=O)[C@H](C)N(C)C1=O", "note": "(stereo partly drawn) (X5-A[γ4hArg(2R,3R-(OH)2)][Gln(3S,4R-Me2)]T[Thr(3ξ)][dR]L[NMeQ][X6][NMeA]; ester 4-C)", "values": [{"measurement": "EC50", "result": 0.0933, "unit": "µM"}, {"measurement": "IC50", "result": 0.794, "unit": "µM"}]}, {"compound": "C[C@@H]1C(=O)CC2C(C)(C)CCC[C@]2(C)[C@@]12CC[C@]1(C=COC1)O2", "note": "(some centres not stated)", "values": [{"measurement": "EC50", "result": "> 50.1", "unit": "µM"}, {"measurement": "IC50", "result": "> 50.1", "unit": "µM"}]}, {"compound": "CCCCCCCCCCCCC1=C(OC)C(=O)c2cccnc2C1=O", "values": [{"measurement": "outcome", "result": "inactive"}]}, {"compound": "COC(=O)C1=C(C(=O)OC)SC(C(C(=O)OC)=C2SC3=C(CCCC3)S2)S1", "values": [{"measurement": "outcome", "result": "inactive"}]}, {"compound": "N#Cc1sc2nc3ccccc3n2c1N", "values": [{"measurement": "EC50", "result": "> 200", "unit": "µM"}, {"measurement": "IC50", "result": 28.8, "unit": "µM"}]}]}
